# According to paper PMC8371461 (Frontiers in Pharmacology, 2021):
# Columns and labels:
# ANKK1 = molecular target: T1, ANKK1 (Homo sapiens, UniProt Q8NFD2); experiment: kinome scan; type: binding
# T1 construct: purchased DiscoverX (KINOMEscan)
# T1 sequence (Q8NFD2 1-765): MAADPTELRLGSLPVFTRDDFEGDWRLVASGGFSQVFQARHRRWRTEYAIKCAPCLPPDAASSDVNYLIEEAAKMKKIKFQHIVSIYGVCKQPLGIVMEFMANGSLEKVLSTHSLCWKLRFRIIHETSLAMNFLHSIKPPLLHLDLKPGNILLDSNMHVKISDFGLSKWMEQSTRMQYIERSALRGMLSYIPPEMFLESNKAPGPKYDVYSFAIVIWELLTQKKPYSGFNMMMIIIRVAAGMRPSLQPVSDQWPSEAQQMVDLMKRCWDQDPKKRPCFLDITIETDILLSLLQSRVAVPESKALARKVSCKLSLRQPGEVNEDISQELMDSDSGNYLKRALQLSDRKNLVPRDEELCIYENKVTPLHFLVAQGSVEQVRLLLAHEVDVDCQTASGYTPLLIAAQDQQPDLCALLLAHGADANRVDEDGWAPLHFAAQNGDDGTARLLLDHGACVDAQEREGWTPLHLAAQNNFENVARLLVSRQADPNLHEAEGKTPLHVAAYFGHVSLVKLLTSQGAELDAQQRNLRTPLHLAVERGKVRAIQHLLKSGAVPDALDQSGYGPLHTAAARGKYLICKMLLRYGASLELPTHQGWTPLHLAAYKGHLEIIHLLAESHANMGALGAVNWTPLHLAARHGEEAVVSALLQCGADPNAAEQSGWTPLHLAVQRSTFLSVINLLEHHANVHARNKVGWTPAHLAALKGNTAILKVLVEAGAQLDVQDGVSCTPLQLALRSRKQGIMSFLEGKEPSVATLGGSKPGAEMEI
# CDC2L1 = molecular target: T2, CDC2L1 (Homo sapiens, UniProt P21127); experiment: kinome scan; type: binding; conditions: 10 µM
# T2 construct: purchased DiscoverX (KINOMEscan)
# T2 sequence (P21127 whole entry): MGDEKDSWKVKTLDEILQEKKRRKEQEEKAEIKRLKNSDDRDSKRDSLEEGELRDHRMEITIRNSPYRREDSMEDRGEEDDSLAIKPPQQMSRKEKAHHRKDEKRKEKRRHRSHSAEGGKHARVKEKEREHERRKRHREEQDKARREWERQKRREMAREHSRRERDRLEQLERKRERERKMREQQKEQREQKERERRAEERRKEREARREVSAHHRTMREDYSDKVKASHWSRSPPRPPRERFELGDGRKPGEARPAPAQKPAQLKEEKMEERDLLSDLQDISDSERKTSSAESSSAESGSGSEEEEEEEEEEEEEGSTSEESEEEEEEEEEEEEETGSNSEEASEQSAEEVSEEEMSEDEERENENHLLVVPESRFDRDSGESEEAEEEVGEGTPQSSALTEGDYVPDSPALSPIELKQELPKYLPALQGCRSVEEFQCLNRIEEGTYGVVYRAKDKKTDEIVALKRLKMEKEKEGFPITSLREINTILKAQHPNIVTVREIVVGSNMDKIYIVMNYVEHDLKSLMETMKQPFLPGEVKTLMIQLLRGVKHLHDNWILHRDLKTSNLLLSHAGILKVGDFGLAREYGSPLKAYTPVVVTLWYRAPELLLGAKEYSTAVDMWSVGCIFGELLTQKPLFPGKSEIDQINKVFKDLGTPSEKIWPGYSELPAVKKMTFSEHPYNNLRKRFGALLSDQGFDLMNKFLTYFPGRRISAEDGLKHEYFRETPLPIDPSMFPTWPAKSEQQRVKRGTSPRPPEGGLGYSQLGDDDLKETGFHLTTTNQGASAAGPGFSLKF
# CHEK2 = molecular target: T3, CHEK2 (Homo sapiens, UniProt O96017); experiment: kinome scan; type: binding; conditions: 10 µM
# T3 construct: purchased DiscoverX (KINOMEscan)
# EGFR(E746-A750del) = molecular target: T4, EGFR(E746-A750del) (Homo sapiens, UniProt P00533, DEL746-750); experiment: kinome scan; type: binding; conditions: 10 µM
# T4 construct: purchased DiscoverX (KINOMEscan)
# T4 sequence (P00533 with tags, fused parts or gaps DEL746-750 limits assumed): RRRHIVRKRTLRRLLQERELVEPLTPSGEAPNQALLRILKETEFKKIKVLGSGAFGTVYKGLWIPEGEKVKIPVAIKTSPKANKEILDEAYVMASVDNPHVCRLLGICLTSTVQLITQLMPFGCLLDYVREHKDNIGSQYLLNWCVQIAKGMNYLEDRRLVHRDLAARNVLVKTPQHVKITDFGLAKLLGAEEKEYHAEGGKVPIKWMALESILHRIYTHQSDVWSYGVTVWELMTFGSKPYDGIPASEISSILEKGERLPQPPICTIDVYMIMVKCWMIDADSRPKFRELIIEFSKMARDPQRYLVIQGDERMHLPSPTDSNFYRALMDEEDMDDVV
# EGFR(L858R) = molecular target: T5, EGFR(L858R) (Homo sapiens, UniProt P00533, L858R); experiment: kinome scan; type: binding; conditions: 10 µM
# T5 construct: purchased DiscoverX (KINOMEscan)
# FGFR2 = molecular target: T6, FGFR2 (Homo sapiens, UniProt P21802); experiment: kinome scan; type: binding; conditions: 10 µM
# T6 construct: purchased DiscoverX (KINOMEscan)
# T6 sequence (P21802 22-821): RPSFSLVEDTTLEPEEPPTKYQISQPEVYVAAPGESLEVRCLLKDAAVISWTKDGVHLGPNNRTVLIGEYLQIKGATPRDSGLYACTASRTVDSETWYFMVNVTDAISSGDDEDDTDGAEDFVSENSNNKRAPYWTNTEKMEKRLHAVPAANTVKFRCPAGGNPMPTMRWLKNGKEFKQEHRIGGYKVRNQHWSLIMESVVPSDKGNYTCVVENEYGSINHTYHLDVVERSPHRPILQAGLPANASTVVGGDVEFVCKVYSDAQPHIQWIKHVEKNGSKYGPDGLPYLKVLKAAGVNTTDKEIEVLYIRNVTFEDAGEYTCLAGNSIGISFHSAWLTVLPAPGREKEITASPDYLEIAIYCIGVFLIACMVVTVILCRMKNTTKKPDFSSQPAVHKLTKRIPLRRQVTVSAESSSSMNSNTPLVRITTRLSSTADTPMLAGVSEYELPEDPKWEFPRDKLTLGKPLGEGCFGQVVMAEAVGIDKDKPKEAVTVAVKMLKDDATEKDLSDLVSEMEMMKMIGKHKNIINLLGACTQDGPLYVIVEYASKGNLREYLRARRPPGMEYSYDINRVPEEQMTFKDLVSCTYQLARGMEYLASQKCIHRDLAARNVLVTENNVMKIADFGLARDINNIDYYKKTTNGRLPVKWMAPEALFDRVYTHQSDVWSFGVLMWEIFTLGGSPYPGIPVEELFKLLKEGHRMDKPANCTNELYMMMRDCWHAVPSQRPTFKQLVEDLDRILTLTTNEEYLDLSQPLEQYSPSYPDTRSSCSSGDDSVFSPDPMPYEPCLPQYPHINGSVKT
# FLT3(D835H) = molecular target: T7, FLT3(D835H) (Homo sapiens, UniProt P36888, D835H); experiment: kinome scan; type: binding; conditions: 10 µM
# T7 construct: purchased DiscoverX (KINOMEscan)
# GAK = molecular target: T8, GAK (Homo sapiens, UniProt O14976); experiment: kinome scan; type: binding
# T8 construct: T7 phage fusion (kinase-tagged phage); purchased DiscoverX; host or cells: BL21-derived E. coli (T7 phage)
# T8 sequence (O14976 1-1311): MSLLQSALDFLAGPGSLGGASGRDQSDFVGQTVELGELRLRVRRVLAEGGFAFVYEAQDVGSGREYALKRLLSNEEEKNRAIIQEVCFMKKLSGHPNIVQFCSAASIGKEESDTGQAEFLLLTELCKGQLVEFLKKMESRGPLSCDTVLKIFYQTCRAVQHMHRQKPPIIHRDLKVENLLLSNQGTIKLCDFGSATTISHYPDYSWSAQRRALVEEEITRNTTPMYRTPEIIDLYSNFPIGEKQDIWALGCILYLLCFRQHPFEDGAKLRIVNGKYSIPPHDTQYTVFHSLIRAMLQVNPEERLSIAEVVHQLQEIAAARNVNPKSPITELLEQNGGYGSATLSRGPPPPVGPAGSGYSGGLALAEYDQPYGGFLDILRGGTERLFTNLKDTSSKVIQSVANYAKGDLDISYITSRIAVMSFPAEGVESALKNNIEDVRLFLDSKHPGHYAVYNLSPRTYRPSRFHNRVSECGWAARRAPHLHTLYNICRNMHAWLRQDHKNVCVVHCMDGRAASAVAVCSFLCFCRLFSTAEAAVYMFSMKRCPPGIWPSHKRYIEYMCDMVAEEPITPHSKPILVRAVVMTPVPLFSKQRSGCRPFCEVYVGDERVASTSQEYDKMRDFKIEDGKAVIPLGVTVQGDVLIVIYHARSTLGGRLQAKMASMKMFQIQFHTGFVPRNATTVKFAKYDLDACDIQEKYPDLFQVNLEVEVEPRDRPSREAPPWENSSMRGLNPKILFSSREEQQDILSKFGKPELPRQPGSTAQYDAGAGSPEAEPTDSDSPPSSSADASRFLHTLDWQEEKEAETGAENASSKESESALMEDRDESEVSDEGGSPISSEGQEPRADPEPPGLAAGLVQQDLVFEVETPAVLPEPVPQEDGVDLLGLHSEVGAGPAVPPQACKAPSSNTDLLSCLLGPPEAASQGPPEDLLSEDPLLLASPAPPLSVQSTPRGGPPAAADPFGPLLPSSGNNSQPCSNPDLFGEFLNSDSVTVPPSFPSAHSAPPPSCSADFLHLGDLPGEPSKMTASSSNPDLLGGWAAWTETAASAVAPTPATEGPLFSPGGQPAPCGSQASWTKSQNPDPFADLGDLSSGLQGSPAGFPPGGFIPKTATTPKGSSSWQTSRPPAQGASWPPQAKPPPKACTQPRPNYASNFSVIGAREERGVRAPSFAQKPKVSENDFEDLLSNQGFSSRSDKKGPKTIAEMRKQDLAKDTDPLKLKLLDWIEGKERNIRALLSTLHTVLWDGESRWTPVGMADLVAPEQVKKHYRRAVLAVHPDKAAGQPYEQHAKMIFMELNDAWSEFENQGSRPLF
# RAF1 = molecular target: T9, RAF1 (Homo sapiens, UniProt P04049); experiment: kinome scan; type: binding; conditions: 10 µM
# T9 construct: purchased DiscoverX (KINOMEscan)
# T9 sequence (P04049 whole entry): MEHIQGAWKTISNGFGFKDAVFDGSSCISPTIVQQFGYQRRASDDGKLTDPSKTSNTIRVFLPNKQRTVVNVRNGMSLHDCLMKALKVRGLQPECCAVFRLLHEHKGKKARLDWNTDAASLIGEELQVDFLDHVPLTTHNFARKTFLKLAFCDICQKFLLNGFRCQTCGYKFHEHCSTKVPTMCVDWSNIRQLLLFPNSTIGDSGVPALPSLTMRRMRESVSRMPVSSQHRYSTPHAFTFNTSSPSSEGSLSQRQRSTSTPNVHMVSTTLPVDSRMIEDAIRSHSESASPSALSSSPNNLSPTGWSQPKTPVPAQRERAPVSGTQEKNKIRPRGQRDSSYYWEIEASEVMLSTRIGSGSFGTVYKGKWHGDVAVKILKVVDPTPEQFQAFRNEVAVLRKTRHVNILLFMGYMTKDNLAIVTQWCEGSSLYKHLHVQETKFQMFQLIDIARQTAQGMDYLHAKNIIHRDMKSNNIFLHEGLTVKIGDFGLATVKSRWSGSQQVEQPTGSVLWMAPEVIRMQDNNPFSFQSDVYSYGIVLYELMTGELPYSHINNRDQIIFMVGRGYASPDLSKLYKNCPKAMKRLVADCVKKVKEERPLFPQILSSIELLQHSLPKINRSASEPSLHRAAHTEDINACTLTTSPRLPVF
# RIOK1 = molecular target: T10, RIOK1 (Homo sapiens, UniProt Q9BRS2); experiment: kinome scan; type: binding; conditions: 10 µM
# T10 construct: purchased DiscoverX (KINOMEscan)
# T10 sequence (Q9BRS2 whole entry): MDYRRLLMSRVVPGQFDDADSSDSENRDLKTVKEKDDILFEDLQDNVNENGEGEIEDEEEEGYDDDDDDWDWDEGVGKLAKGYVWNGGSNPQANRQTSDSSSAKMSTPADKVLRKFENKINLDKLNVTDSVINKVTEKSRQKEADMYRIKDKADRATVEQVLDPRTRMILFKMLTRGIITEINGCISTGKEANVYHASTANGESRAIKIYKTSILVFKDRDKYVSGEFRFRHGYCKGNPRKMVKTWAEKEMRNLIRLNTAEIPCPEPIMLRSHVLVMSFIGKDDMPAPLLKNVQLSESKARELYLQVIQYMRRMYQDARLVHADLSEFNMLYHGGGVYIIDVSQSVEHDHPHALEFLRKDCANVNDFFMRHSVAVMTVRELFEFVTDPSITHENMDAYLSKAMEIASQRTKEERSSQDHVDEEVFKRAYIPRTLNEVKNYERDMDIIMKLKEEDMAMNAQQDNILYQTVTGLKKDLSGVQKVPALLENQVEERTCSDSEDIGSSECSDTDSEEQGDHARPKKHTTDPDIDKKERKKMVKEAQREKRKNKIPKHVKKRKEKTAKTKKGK
# ULK1 = molecular target: T11, ULK1 (Homo sapiens, UniProt O75385); experiment: kinome scan; type: binding; conditions: 10 µM
# T11 construct: purchased DiscoverX (KINOMEscan)
# VRK2 = molecular target: T12, VRK2 (Homo sapiens, UniProt Q86Y07); experiment: kinome scan; type: binding; conditions: 10 µM
# T12 construct: purchased DiscoverX (KINOMEscan)
# T12 sequence (Q86Y07 whole entry): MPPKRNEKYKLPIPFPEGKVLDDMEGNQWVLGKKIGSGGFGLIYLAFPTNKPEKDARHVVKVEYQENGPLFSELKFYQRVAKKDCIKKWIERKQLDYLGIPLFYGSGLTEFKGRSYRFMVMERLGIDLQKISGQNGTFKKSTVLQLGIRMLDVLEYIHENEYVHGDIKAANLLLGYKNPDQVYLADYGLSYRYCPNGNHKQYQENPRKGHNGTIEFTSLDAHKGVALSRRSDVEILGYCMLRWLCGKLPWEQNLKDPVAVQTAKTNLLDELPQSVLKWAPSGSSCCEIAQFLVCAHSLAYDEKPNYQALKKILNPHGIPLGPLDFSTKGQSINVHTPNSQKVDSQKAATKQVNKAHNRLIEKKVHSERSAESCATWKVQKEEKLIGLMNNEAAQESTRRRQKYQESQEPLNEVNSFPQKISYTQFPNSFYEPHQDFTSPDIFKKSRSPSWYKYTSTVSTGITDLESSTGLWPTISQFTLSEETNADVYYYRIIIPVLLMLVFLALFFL
# CGR8 PSC = experiment: ATP quantification (ATPlite), cell proliferation/viability; type: cell-based, mouse; conditions: PSC exposed for three days
# Experimental: Cell viability was measured in PSC by using the ATPlite Luminescence Assay System (Perkin Elmer). PSC were plated in gelatine-coated 96-well plates at a density of 10,000 cells-cm^2 in their standard medium. At different time points, the substrate for emission of luminescence in the presence of ATP was added according to the manufacturer’s instructions. Luminescence was measured with the SpectraMax L Microplate Luminometer (Molecular Devices).
# The effects of the drug on proliferation or differentiation was next investigated in quantitative assays.
# Abelson (Abl) = Abelson (Abl) (Homo sapiens, UniProt P00519); experiment: Milano activity test; type: biochemical; conditions: wild-type Abl; for Milano activity test: up to 100 µM
# Sequence of Abelson (Abl) (P00519 whole entry, species assumed): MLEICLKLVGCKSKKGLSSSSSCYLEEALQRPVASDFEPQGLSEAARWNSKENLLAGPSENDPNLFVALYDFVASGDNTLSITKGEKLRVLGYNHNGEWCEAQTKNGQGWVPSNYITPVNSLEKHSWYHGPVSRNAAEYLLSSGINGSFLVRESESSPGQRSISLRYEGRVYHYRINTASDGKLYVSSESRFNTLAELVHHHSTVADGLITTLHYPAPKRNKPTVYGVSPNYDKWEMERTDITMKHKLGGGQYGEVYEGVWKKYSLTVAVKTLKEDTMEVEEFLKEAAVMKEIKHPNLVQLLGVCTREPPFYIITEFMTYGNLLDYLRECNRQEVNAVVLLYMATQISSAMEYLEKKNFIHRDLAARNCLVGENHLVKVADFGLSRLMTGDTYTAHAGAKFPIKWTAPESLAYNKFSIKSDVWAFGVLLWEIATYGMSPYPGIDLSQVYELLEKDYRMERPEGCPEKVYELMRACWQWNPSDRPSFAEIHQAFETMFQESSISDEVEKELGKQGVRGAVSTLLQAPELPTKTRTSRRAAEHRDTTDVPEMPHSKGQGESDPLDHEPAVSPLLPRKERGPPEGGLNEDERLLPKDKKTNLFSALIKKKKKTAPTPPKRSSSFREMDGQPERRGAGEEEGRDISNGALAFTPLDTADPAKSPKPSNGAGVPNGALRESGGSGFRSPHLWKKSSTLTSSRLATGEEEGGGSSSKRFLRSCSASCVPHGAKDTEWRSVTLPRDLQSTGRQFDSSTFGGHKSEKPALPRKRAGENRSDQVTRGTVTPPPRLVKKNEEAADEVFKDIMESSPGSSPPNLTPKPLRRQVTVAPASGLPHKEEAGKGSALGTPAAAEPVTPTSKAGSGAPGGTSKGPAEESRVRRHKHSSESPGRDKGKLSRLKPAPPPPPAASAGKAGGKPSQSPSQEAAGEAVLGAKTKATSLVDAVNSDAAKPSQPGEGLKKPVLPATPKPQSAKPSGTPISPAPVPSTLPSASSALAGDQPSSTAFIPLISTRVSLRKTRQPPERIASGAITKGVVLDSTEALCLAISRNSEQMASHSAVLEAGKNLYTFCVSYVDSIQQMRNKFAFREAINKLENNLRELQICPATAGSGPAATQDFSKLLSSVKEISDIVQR
smiles,measurement,setting,value
"Nc1ccc(N=Nc2ccccc2)c(N)n1 [phenazopyridine, 2,6-diamino-3-(phenylazo)pyridine]",remaining binding (% of control),ANKK1; 10 µM,18
same,remaining binding at 10 µM,ANKK1; read-out: % Of control,18%
same,kinase inhibition,CDC2L1,90
same,kinase inhibition,CHEK2,99
same,remaining binding (% of control),EGFR(E746-A750del),69
same,kinase inhibition,EGFR(L858R),100
same,kinase inhibition,FGFR2,93
same,remaining binding (% of control),FLT3(D835H),81
same,remaining binding (% of control),GAK; 10 µM,16
same,remaining binding at 10 µM,GAK; read-out: % Of control,16%
same,kinase inhibition,RAF1,100
same,remaining binding (% of control),RIOK1,93
same,kinase inhibition,ULK1,100
same,kinase inhibition,VRK2,86
same,ATP levels,CGR8 PSC,unchanged
same,inhibition at 500 µM,"Abelson (Abl); 500 µM, data not shown",35%
same,Milano activity test,Abelson (Abl),not inhibited
same,Milano activity test,Abelson (Abl); listed as Phenazopyridine,Phenazopyridine is inactive at 100 µM
